Results reported in patent US20110230428A1, “CERTAIN KYNURENINE-3-MONOOXYGENASE INHIBITORS, PHARMACEUTICAL COMPOSITIONS, AND METHODS OF USE THEREOF” (priority 2008, published 2011).

biological target: T1, KMO mouse enzyme (Mus musculus, UniProt Q91WN4); test: KMO mouse enzyme assay: L-Kynurenine hydroxylation to 3OH-KYN by LC/MS; type: biochemical; settings: compound at 10 μM; KMO from mouse liver mitochondria; read-out: INH.Mouse @ 10 μM
T1 construct: KMO enzyme prepared at Evotec from mouse liver (4-6 weeks old) via mitochondria isolation; from tissue; host or cells: mouse liver (4-6 weeks old), isolated mitochondria
T1 sequence (Q91WN4 whole entry): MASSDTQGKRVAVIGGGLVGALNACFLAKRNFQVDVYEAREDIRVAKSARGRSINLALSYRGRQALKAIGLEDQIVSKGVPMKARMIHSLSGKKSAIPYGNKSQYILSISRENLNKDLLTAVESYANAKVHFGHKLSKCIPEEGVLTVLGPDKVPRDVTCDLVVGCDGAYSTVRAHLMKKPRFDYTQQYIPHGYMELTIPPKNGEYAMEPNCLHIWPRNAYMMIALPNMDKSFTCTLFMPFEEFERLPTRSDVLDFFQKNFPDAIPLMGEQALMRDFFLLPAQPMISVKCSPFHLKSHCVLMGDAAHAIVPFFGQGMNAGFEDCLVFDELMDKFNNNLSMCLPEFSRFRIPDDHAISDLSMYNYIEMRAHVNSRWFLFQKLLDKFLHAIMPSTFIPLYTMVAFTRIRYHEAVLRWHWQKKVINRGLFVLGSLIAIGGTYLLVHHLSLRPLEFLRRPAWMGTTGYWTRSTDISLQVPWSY
Procedure: A method of monitoring L-Kynurenine (KYN) hydroxylation to form 3-Hydroxy-Kynurenine (3OH-KYN) by LC/MS is described. Product is quantified by multiple reaction monitoring (MRM method).
• Compound: Stock concentrations: 10 mM in 100% DMSO • Enzyme: KMO enzyme prepared at Evotec from mouse liver (4-6 weeks old) via mitochondria isolation as described in the literature • Substrate: L-Kynurenine (Sigma: Cat# K3750, stock concentration: 10 mM in 100 mM potassium phosphate buffer, pH 7.4)
• Buffer: 100 mM potassium phosphate, pH 7.4, 200 μM NADPH, 0.4 U/ml G6P-DH (Glucose 6-phosphate Dehydrogenase), 3 mM G6P (D-Glucose 6-phosphate) • Assay Volume: 40 μl • Plate Format: 384 well plate, transparent (Matrix) • Read-Out: product (3OH-KYN) quantification using product specific MRM • Reader: LC/MS/MS
• prepare serial dilution (factor 3) of compound in 100% DMSO (top concentration=10 mM, 100% DMSO) • [8 points: 10 mM; 3.33 mM; 1.11 mM; 0.37 mM; 0.12 mM; 0.04 mM; 0.0137 mM; 0.0045 mM, 0.0015 mM] • prepare […] solution of each compound concentration (top concentration 300 μM, 3% DMSO) in assay buffer • [concentrations: 300 μM; 100 μM; 33.3 μM; 11.1 μM; 3.70 μM; 1.23 μM; 0.41 μM; 0.137 μM] • prepare substrate (10 mM) at concentration of 1 mM in assay buffer • assay mix: 4 μl compound/well of each concentration+24 μl assaybuffer/well+8 μl KMO mouse enzyme+4 μl 1 mM substrate (final concentration=100 μM) • [final compound top concentration: 30 μM; 0.3% DMSO] • [final compound bottom concentration: 0.0137 μM; 0.3% DMSO] • positive control: 4 μl 50 μM FCE28833 in assay buffer, 0.5% DMSO [final assay concentration=5 μM]+24 μl assaybuffer/well+8 μl KMO mouse enzyme+4 μl 1 mM substrate [final concentration=100 μM] • negative control: 28 μl assay buffer/well+8 μl KMO mouse enzyme+4 μl 1 mM substrate [final concentration=100 μM] • incubate 40 min at RT • add 40 μl/well 10% trichloro acetic acid in water to stop the assay and precipitate protein • centrifuge plate for 3 min at 4000 rpm • product detection by LC/MS (injection of 20 μl/well, 2 fold overfill of the 10 μl sample loop) Data analysis: IC50's are calculated using automated fitting algorithm (A+Analysis).
Using procedures similar to those described herein, the following compounds were assayed for activity.

SMILES | inhibition at 10 µM
CON=C(CCC(=O)Nc1nncs1)c1ccc(Cl)c(Cl)c1 [4-(3,4-Dichloro-phenyl)-4-methoxyimino-N-[1,3,4]thiadiazol-2-yl-butyramide] | 95.2%
CCNC(=O)CC/C(=N\OC)c1ccc(Cl)c(Cl)c1 [4-(3,4-Dichloro-phenyl)-N-ethyl-4-methoxyimino-butyramide] | 98.9%
CO/N=C(\CCC(=O)Oc1cccnc1)c1ccc(Cl)c(Cl)c1 [4-(3,4-Dichloro-phenyl)-4-methoxyimino-butyric acid pyridin-3-yl ester] | 105%
CON=C(c1ccc(Cl)c(Cl)c1)C1C[C@@H]1C(=O)OC (stereo partly drawn) [(1S,2S)-trans-2-[(3,4-Dichloro-phenyl)-methoxyimino-methyl]-cyclopropanecarboxylic acid methyl ester] | 61%
CON=C(CCCC#N)c1ccc(Cl)c(Cl)c1 [5-(3,4-Dichloro-phenyl)-5-methoxyimino-pentanenitrile] | 71.5%
CO/N=C(\CCC(=O)OC)c1ccc(Cl)c(Cl)c1 [4-(3,4-Dichloro-phenyl)-4-methoxyimino-butyric acid methyl ester] | 106%
CON=C(CCC(=O)NCCN1CCOCC1)c1ccc(Cl)c(Cl)c1 [4-(3,4-Dichloro-phenyl)-4-methoxyimino-N-(2-morpholin-4-yl-ethyl)-butyramide] | 54.6%
CON=C(CCC(=O)Nc1cncc(F)c1)c1ccc(Cl)c(Cl)c1 [4-(3,4-Dichloro-phenyl)-N-(5-fluoro-pyridin-3-yl)-4-methoxyimino-butyramide] | 90.3%
CON=C(CCC(=O)Nc1ccc(C)nc1C)c1ccc(Cl)c(Cl)c1 [4-(3,4-Dichloro-phenyl)-N-(2,6-dimethyl-pyridin-3-yl)-4-methoxyimino-butyramide] | 93%
CON=C(CCC(=O)Nc1cnc(C)nc1)c1ccc(Cl)c(Cl)c1 [4-(3,4-Dichloro-phenyl)-4-methoxyimino-N-(2-methyl-pyrimidin-5-yl)-butyramide] | 90.4%
CO/N=C(\CCC(=O)Nc1ccon1)c1ccc(Cl)c(Cl)c1 [4-(3,4-Dichloro-phenyl)-N-isoxazol-3-yl-4-methoxyimino-butyramide] | 101%
CO/N=C(\CCC(=O)NC(C)C)c1ccc(Cl)c(Cl)c1 [4-(3,4-Dichloro-phenyl)-N-isopropyl-4-methoxyimino-butyramide] | 94.3%
CON=C(CCC(=O)Nc1c(C)ccnc1C)c1ccc(Cl)c(Cl)c1 [4-(3,4-Dichloro-phenyl)-N-(2,4-dimethyl-pyridin-3-yl)-4-methoxyimino-butyramide] | 85%
CON=C(CCC(=O)Nc1ncccn1)c1ccc(Cl)c(Cl)c1 [4-(3,4-Dichloro-phenyl)-4-methoxyimino-N-pyrimidin-2-yl-butyramide] | 101%
CO/N=C(\CCc1nn[nH]n1)c1ccc(Cl)c(Cl)c1 [1-(3,4-Dichloro-phenyl)-3-(2H-tetrazol-5-yl)-propan-1-one O-methyl-oxime] | 96.4%
CO/N=C(\CCC(=O)NC1CC1)c1ccc(Cl)c(Cl)c1 [N-Cyclopropyl-4-(3,4-dichloro-phenyl)-4-methoxyimino-butyramide] | 100%
CON=C(CCc1nc2cnccc2[nH]1)c1ccc(Cl)c(Cl)c1 [1-(3,4-Dichloro-phenyl)-3-(1H-imidazo[4,5-c]pyridin-2-yl)-propan-1-one O-methyl-oxime] | 64.3%
CNC(=O)CC/C(=N\OC)c1ccc(Cl)c(Cl)c1 [4-(3,4-Dichloro-phenyl)-4-methoxyimino-N-methyl-butyramide] | 93.7%
CON=C(CCC(=O)Nc1ccc(C)nn1)c1ccc(Cl)c(Cl)c1 [4-(3,4-Dichloro-phenyl)-4-methoxyimino-N-(6-methyl-pyridazin-3-yl)-butyramide] | 90.2%
CON=C(CCC(=O)NCc1cccnc1)c1ccc(Cl)c(Cl)c1 [4-(3,4-Dichloro-phenyl)-4-methoxyimino-N-pyridin-3-ylmethyl-butyramide] | 77.1%
